Our source for the vaccination associated toxicity and EC50 values is patent US20070148184A1, “Survivin-derived peptides and use thereof” (priority 2003, published 2007).

Data set [1] deals with stage 1V melanoma patients. In words: Vaccination of melanoma patients with peptide pulsed dendritic cells. As to conditions: human, in vivo. The source says:
All clinical procedures were in accordance with the Declaration of Helsinki and all patients provided informed consent prior to therapy. Stage 1V cutaneous or uveal melanoma patients were eligible when their disease was progressive despite at least two different chemo-, immuno, or chemoimmunotherapies. […] Important exclusion criteria were evidence of CNS metastases, active autoimmune or infectious diseases, pregnancy and lactation, as well as significant psychiatric abnormality. Peptide pulsed dendritic cells were generated as previously described (82). Briefly, PBMCs from leukapheresis were isolated on LymphoprepTM (Nycomed Pharma), frozen in aliquots and stored in liquid nitrogen. One week prior to vaccination, PBMCs were thawed, washed and cultured in medium containing gentamycin, glutamine and heat inactivated autologous plasma. On day 1 and 5, IL-4 and GM-CSF were added. To differentiate mature DCs, […] and prostaglandin E2 were added on day 6. […] Immunological responses were monitored by the ELISPOT assay, using PBMCs obtained every three months, to detect survivin96-104 specific IFN-γ release. […] The reaction was terminated upon the appearance of dark purple spots, which were quantitated using the AlphaImager System (Alpha Innotech, San Leandro, Calif., USA).

In another data set the target is T1, HLA-A2 (Homo sapiens, UniProt P04439, D140Y/D185E/D98H/E176V/E277Q/G131W/G231S/I119V/I121R/I166T/I218V/L300P/L318F/N151K/N90K/P208A/P217A/Q86G/Q94H/R138H/R169H/T345S).
T1 construct: stabilization of the class I molecules after loading of peptide to the peptide transporter deficient cell line T2; endogenous in cells; host or cells: T2 (TAP-deficient human hybrid cell line), metabolically labelled lysate
Put plainly: Assembly assay for peptide binding to class I MHC, HLA-A2. As to conditions: Example 1, Table 1; read-out: C50 (peptide concentration for half maximal binding to HLA-A2). As to the method: This assembly assay is carried out as described previously (12,13), and it is based on stabilisation of the HLA molecule after loading of peptide to the peptide transporter deficient cell line T2. Subsequently, correctly folded stable HLA heavy chains are immunoprecipitated using conformation dependent antibodies and the peptide binding is quantitated.
Assembly assays for binding of the synthetic peptides to class I MHC molecules metabolically labeled with [35S]-methionine were carried out as described (12,13). The assembly assay is based on stabilization of the class I molecules after loading of peptide to the peptide transporter deficient cell line T2. Subsequently, correctly folded stable MHC heavy chains are immunoprecipitated using conformation-dependent antibodies. After IEF electrophoresis, gels were exposed to phosphoImager screens, and peptide binding was quantified using the Imagequant PhosphorImager program (Molecular Dynamics, Sunnyvale, Calif.).
The binding affinity of synthetic peptides (Invitrogen, Carlsbad, Calif., USA) to HLA-A1, -A2, A3, or -A11 molecules metabolically labeled with [^35S]-methionine was measured in the assembly assay, as described previously (12). The assay is based on peptide-mediated stabilization of empty HLA molecules released upon cell lysis, from the TAP-deficient cell lines. […] MHC heavy chain bands were quantified using the ImageGauge Phosphorimager program (FUJI photo film Co., Carrollton, Tex., USA). The intensity of the band is proportional to the amount of peptide-bound class I MHC complex recovered during the assay. Subsequently, the extent of stabilization of the HLA-molecule is directly related to the binding affinity of the added peptide. The peptide concentration used to analyze the recovery of the HLA-molecules was 40, 4, 0.4, 0.04 μM for HLA-A1 and HLA-A11, and 100, 10, 1, 0.1, 0.01 μM for HLA-A2 and HLA-A3. The C50 value was subsequently calculated for each peptide as the peptide concentration sufficient for half maximal stabilization.

For `CSCC[C@H](NC(=O)[C@@H](N)CC(C)C)C(=O)N[C@@H](CC(C)C)C(=O)NCC(=O)N[C@@H](CCC(=O)O)C(=O)N[C@@H](Cc1ccccc1)C(=O)N[C@@H](CC(C)C)C(=O)N[C@@H](CCCCN)C(=O)N[C@@H](CC(C)C)C(=O)O` [Sur1M2], the vaccination associated toxicity result in data set [1] is recorded as “vaccination associated toxicity was not observed”. For the same molecule, the EC50 on HLA-A2 was found to be 1000 nM.
